From publication PMC12670405, “Second-Generation AURKA-Targeting PROTACs: Structural Optimization toward in Vivo Degradation in Neuroblastoma” (Journal of Medicinal Chemistry, 2025)

Assays:
Experiment in all cases: LC-MS/MS proteome profiling
Type in all cases: cell-based, Homo sapiens
FAM204A = conditions: SK5527 vs DMSO (24h)
Description: (§1) Analysis of the mass spectrometry data was performed in DiaNN (version 1.9). Precursor false discovery rate was set at 1%. Spectra were searched against the Homo sapiens protein sequences in the Uniprot database (database release version of 2024_01), containing 20,597 sequences (www.uniprot.org) and the imbedded protein contaminant list. Enzyme specificity was set as C-terminal to arginine and lysine, also allowing cleavage at proline bonds with a maximum of 2 missed cleavages. Variable modifications were set to oxidation of methionine residues and acetylation of protein N-termini while fixed modification was set to carbamidomethylation of cystein residues. Matching between runs was enabled. Mainly default settings were used, except for the addition of a 400-900 m/z precursor mass range filter and MS1 and MS2 mass tolerance was set to 10 and 20 ppm respectively.
(§2) Further data analysis of the results was performed with an in-house script in the R programming language.
(§3) Protein expression matrices were prepared as follows: the DIA-NN main report output table was filtered at a precursor and protein library q-value cut-off of 1 % and only proteins identified by at least one proteotypic peptide were retained. After pivoting into a wide format, iBAQ intensity columns were then added to the matrix using the DIAgui’s R package get_IBAQ function. PG MaxLFQ intensities were log2 transformed and replicate samples were grouped. Proteins with less than 3 valid values in at least one group were removed and missing values were imputed from a normal distribution centered around the detection limit (package DEP) leading to a list of 7,759 quantified proteins in the experiment, used for further data analysis. […]
(§4) Statistical significance for differential regulation was set to a false discovery rate (FDR) of < 0.05 and |log2FC| = 2.

ETV3 = conditions: SK5527 vs DMSO (24h)
Description: as §1, §2, §3, §4

MTERF3 = conditions: SK5527 vs DMSO (24h)
Description: as §1, §2, §3, §4

ZNF770 = conditions: SK5527 vs DMSO (24h)
Description: as §1, §2, §3, §4

ESCO2 = conditions: SK5527 vs DMSO (24h)
Description: as §1, §2, §3, §4

BAZ2A = conditions: SK5527 vs DMSO (24h)
Description: as §1, §2, §3, §4

ZNF417 = conditions: SK5527 vs DMSO (24h)
Description: as §1, §2, §3, §4

ZNF286A = conditions: SK5527 vs DMSO (24h)
Description: as §1, §2, §3, §4

IMR-32 proteome = test system: IMR-32 proteome
Description: IMR-32 cells were seeded in T-25 flasks at a density of 1.7 million cells/flask and treated the next day with DMSO (negative control), SK5527 (500 nM) or MK-5108 (500 nM) for 3 or 24 h (data for MK-5108 not discussed in this manuscript). Cell pellets were harvested at the respective time points, lysed, and the concentration of the obtained protein lysates measured as previously described. Details on further sample preparation, LC–MS/MS, and data analysis can be found in the Supporting Information. The LC–MS/MS proteomics data have been deposited to the ProteomeXchange Consortium via the PRIDE partner repository with the data set identifier PXD061539.
Supplementary Methods 1 – LC-MS/MS proteomics
From each sample, 100 µg of protein was isolated, the volumes were equalized with water and SDS and TEAB were added to a final concentration of 5% and 50 mM, respectively. Proteins were reduced and alkylated by addition of 10 mM Tris(2-carboxyethyl)phosphine hydrochloride and 40 mM chloroacetamide and incubation for 30 minutes at 25°C in the dark. Phosphoric acid was added to a final concentration of 1.2%, and samples were subsequently diluted 7-fold with binding buffer containing 90% methanol in 100 mM TEAB, pH 7.55. The samples were loaded on the 96-well S-Trap™ plate (Protifi), placed on top of a deepwell plate, and centrifuged for 2 min at 1,500 x g at RT. […]

Cc1cc(Nc2ccc(F)c(CC3(C(=O)N4CCC(F)(CN5CCN(c6ccc(N7CCC(=O)NC7=O)cn6)CC5)CC4)CCN(Cc4cccc(Cl)c4F)CC3)n2)n[nH]1 [SK5527]
logFC FAM204A (FAM204A): 2.65 | logFC ETV3 (ETV3): -2.36 | logFC MTERF3 (MTERF3): -2.09 | logFC ZNF770 (ZNF770): -4 | logFC ESCO2 (ESCO2): -2.1 | logFC BAZ2A (BAZ2A): 2.83 | logFC ZNF417 (ZNF417): -2.12 | logFC ZNF286A (ZNF286A): -2.95 | CRBN neosubstrates (GSPT1, CSNK1A1, ZFP91, SALL4, ZNF654, ZNF787, E4F1, PATZ1) (in words) (IMR-32 proteome; IMR-32): not significantly downregulated | degradation selectivity profile (in words) (IMR-32 proteome; IMR-32, 3h of treatment): AURKA as the only significantly downregulated protein
